# Test results taken from patent publication US11427605B2, “Crystalline forms of 5-chloro-N4-[-2-(dimethylphosphoryl) phenyl]-N2-{2-methoxy-4-[4-(4-methylpiperazin-1-yl) piperidin-1-yl] phenyl} pyrimidine-2,4-diamine” (ARIAD Pharmaceuticals, Inc., priority 2014, dated 2022).
# How the values were obtained:
# [1] = Remeasurement by XRPD after storage at ambient conditions; format: physicochemical
# Description: For each experiment, the anti-solvent was added to each solvent vial, with a solvent to anti-solvent ratio of 1:0.25. In the cases where no precipitation occurred, this ratio was increased to 1:1, and if again no precipitation occurred the ratio was increased to 1:4, with a waiting time of 60 minutes between the additions (up to the third addition) and 35 minutes between the third addition and fourth addition. When no crystallization occurred or not enough solids precipitated for separation, samples were kept at 5° C. for 17 hours. The precipitated solids were separated from the liquids by centrifugation and decantation. When decantation could not be applied, the liquid was carefully removed using Pasteur's pipettes. The solids were dried at 200 mbar for 17 hours and analyzed by XRPD and digital imaging. In the cases where no precipitation occurred, the solvents were evaporated at 200 mbar for 17 hours prior to lowering the vacuum to 5 mbar. All obtained solids were analyzed by XRPD and digital imaging. The measuring plates containing the final solid were stored at ambient temperature for 5 weeks. The solid form was assessed again by XRPD. The arrows in Table 18 indicate if the form changed during storage.
# A total of 68 slurry experiments were performed with brigatinib both at room temperature (20° C.) and 40° C., using 34 solvents. In all cases, a solvent volume of 250 μL was used. The slurries were stirred for two weeks. At the end of the slurry time, the vials were centrifuged and solids and mother liquids separated. The solids were analyzed wet and dry by XRPD and digital imaging. The measuring plates were then stored at ambient conditions for 3-4 weeks and another XRPD was obtained of the solid, any form change is shown by an arrow.
# After completion of the cycling program, the solids were separated from the mother liquids by centrifugation, dried under 200 mbar for 48 hours (2-ethoxyethanol for 283 hours) and analyzed by XRPD and digital imaging. For the applied crystallization conditions and corresponding obtained solid forms, see Table 24. Solid form (or mixture) following the arrow (→) was obtained upon remeasurement by XRPD after storage of the measuring plates at ambient conditions for 5 weeks.
# In Table 27, the occurrence of solid forms of brigatinib is given, together with the crystallization methods from which they crystallized and the related solvents. The table provides the results of over 600 experiments with solid forms measured by XRPD wet and/or dry (wet and dry count as separate experiments). In eight cases, no form assignment was made due to low yield. The solid form(s) following the arrow was/were obtained upon remeasurement by XRPD after storage of the measuring plates at ambient conditions for several weeks (2-5 weeks).
# [2] = Dehydration of Forms C and D (drying); format: physicochemical
# Description: In Table 25, a list of drying conditions for Form C are presented together with the final solid form.
# In Table 26, a list of drying processes of Form D are presented. Form D under 5 mbar pressure and at 60° C. led to the formation of Form B after 24 h. In some instances, small quantities of Form C were visible on the XRPD patterns, even after 5 days of drying. This observation could be attributed to different particle morphology (fine particles vs. agglomerates/aggregates). […] In general, depending on the time and pressure, Forms B and C occur.
# [3] = for Temperature at which (partial) conversion to Form A was observed / Temperature at which conversion to Form A was complete: sample started as the labelled form; for Temperature of dehydration to anhydrous Form B / Temperature of solid-solid transition to Form A: ambient humidity, increasing temperature; for Temperature of solid-solid transition to Form A: not reversible
# Description: High resolution X-ray powder diffraction patterns disclosed herein were collected on a D8 Advance system in the Brag-Brentano geometry equipped with LynxEye solid state detector. The radiation used for collecting the data was CuKα1 (λ=1.54056 Å) monochromatized by germanium crystal. The patterns were collected in the range of 4-41.5°2θ, with a step in the range of 0.016 °2θ without further processing. All patterns were taken at room temperature, approximately 295 K. The material was placed in a boron glass capillary of 0.3 mm diameter. For variable humidity and variable temperature experiments disclosed herein, an ANSYCO HT chamber was used. The material was placed on a fixed sample holder that was mounted inside the chamber. The humidity was applied locally and varied from 10% to 80% (dew point). The temperature variation rate was 10° C./min.
# Data was collected for Forms A, B, C, and D almost immediately after reaching the target temperature (within approximately 10 min).
# For Form A, the temperatures used in the experiment were 25, 40, 60, 100, 120, 140, 150, 160, 170, 180, 190, and 200° C. Data collection lasted 20 min per temperature and the stabilization time in between was 10 min.
# For Form B, the temperatures used in the experiment were 25, 40, 60, 100, 120, 140, 150, 155, 160, 165, 170, 180, and 190° C. Data collection lasted 45 min per temperature and the stabilization time in between was 10 min.
# For Form C, the temperatures used in the experiment were 25, 40, 60, 70, 80, 100, 120, 140, 150, 155, 160, 165, 170, 175, 180, 190, and 200° C. Data collection lasted 40 min per temperature and the stabilization time in between was 10 min.
# For Form D, the temperatures used in the experiment were 25, 35, 45, 55, 65, 75, 85, 100, 120, 140, 150, 155, 160, 165, 170, 175, 180, 190, and 200° C. Data collection lasted 10 min for temperatures 25-85° C. with a stabilization time of 1 min, and 40 min for temperatures 100-25° C. with a stabilization time of 10 min.
# Variable humidity XRPD = format: physicochemical; conditions: 30° C.
# Description: The temperature variation rate was 10° C./min.
# The relative humidity was increased from the starting amount, brought up to the maximum, then dried back to the minimum value. The data collection time was 41 min at each step, time starting after equilibration of the relative humidity.
# The peaks shifts were reversible at RH of about 30%. A sample of Form A was then exposed to 80% RH for 15 h. The peaks shifts had occurred after 90 min, and the extent of the shifts remained constant throughout the exposure at 80% RH for 15 h. Upon return to 10% RH, the peaks shifted to their original position. To investigate the amount of water adsorbed, a new sample of Form A was exposed for 2 h at 80% and a TGMS of this sample was measured.
# For Form B, the relative humidity was measured at 30° C. The RH % values measured were 10, 30, 50, 60, 65, 70, 75, and 80%. […] At 80% RH the conversion to Form C was completed. Upon desorption, Form C dehydrates to Form B, starting at about 30% RH. At 10% RH the conversion to Form B was completed.
# For Form C, a hydrate, the relative humidity was measured at 30° C. The experiment was performed starting at the maximum RH and dehydrated, then rehydrated back up to the maximum value. The RH % values measured were 10, 15, 20, 25, 30, 35, 40, 60, and 80%. Upon desorption, Form C dehydrated to Form B, starting at about 25% RH. At 10% RH, the conversion to Form B was complete. Upon sorption, Form B converted to Form C, starting at about 60% RH. At 80% RH the conversion to Form C was complete. The results are consistent with the corresponding experiments of Form B.
# For Form D, a hydrate, the relative humidity was measured at 30° C. The experiment was performed starting at the maximum RH and dehydrated, then rehydrated back up to the maximum value. The RH % values measured were 10, 15, 20, 25, 30, 35, 40, 60, and 80%. […] Form C dehydrated to Form B, starting at about 20% RH. At 10% RH, the conversion to Form B was complete. Upon sorption, Form B converted to Form C, starting at about 40% RH. At 80% RH, the conversion to Form C was complete.
# [4] = Vapor diffusion onto solids experiments; format: physicochemical; conditions: room temperature, two weeks
# Description: For the 34 vapor diffusion onto solids experiments, amorphous brigatinib was prepared by grinding the starting material for 4 hours. The vials containing the amorphous brigatinib were left open and placed in closed 40 mL vials containing 2 mL of solvent (see Table 21). The amorphous brigatinib was exposed to solvent vapors at room temperature for two weeks. At the end of the experiment time, the solids were harvested wet and dry and analyzed by XRPD and digital imaging. For the applied crystallization conditions and corresponding obtained solid forms see Table 22.
# [5] = sample started as the labelled form
smiles,measurement,setting,value
"COc1cc(N2CCC(N3CCN(C)CC3)CC2)ccc1Nc1ncc(Cl)c(Nc2ccccc2P(C)(C)=O)n1 [A+L, brigatinib]",Solid form after storage (XRPD),"[1]; mixtures A+L, ambient conditions for 3 weeks",still a mixture of A+L
"COc1cc(N2CCC(N3CCN(C)CC3)CC2)ccc1Nc1ncc(Cl)c(Nc2ccccc2P(C)(C)=O)n1 [Forms A+K, brigatinib]",Solid form after storage (XRPD),"[1]; mixture of Forms A+K, ambient conditions for 3 weeks",still a mixture of Forms A+K
"COc1cc(N2CCC(N3CCN(C)CC3)CC2)ccc1Nc1ncc(Cl)c(Nc2ccccc2P(C)(C)=O)n1 [Form C, brigatinib]",final solid form after drying,"[2]; 30° C., 1.5 h, ambient pressure",appears to be stable
same,final solid form after drying,"[2]; 40° C., 1 h, ambient pressure",converted to Form B
same,Temperatures at which the form is unstable,[3]; VT-XRPD,higher than 25 °C
same,Temperature at which (partial) conversion to Form A was observed,[3]; VT-XRPD,120 °C
same,Temperature at which conversion to Form A was complete,[3]; VT-XRPD,155 °C
same,Temperature of dehydration to anhydrous Form B,[3],about 40 °C
same,Temperature of solid-solid transition to Form A,[3],about 150 °C
same,RH at which Form B starts to convert to hydrated Form C (sorption),Variable humidity XRPD; [5],about 60 % RH
same,RH at which conversion to Form B was complete (desorption),Variable humidity XRPD; [5],10 % RH
same,RH at which conversion to Form C was complete (sorption),Variable humidity XRPD; [5],80 % RH
"COc1cc(N2CCC(N3CCN(C)CC3)CC2)ccc1Nc1ncc(Cl)c(Nc2ccccc2P(C)(C)=O)n1 [Form D, brigatinib]",final solid form after drying,"[2]; 5 mbar, 60° C., 24 h",Form B
same,final solid form after drying,"[2]; 50 mbar, 60° C., 86 h",mixture of Forms B+C
same,final solid form after drying,"[2]; 50 mbar, 60° C., 110 h",Form B
same,final solid form after drying,"[2]; 15 h at 60° C., 5 mbar",C + D
same,final solid form after drying,"[2]; 20 h (RT), 5 mbar",B + C
same,final solid form after drying,"[2]; 20 h at 60° C., 5 mbar",B + C
same,final solid form after drying,"[2]; 28 h at 60° C., 5 mbar",B + C
same,final solid form after drying,"[2]; 65 h at 60° C., 50 mbar",B + C
same,final solid form after drying,"[2]; 86 h at 60° C., 50 mbar",B + C
same,final solid form after drying,"[2]; 5 days at 60° C., 5 mbar",B + C
same,final solid form after drying,"[2]; 8 days, closed vial at RT, ambient pressure",B + C
same,Temperature at which Form D had converted (partially) to hydrated Form C,[3]; VT-XRPD,35 °C
same,Temperature at which Form D had converted to dehydrated Form B,[3]; VT-XRPD,45 °C
same,Temperatures at which the form is unstable,[3]; VT-XRPD,higher than 25 °C
same,Temperature at which (partial) conversion to Form A was observed,[3]; VT-XRPD,120 °C
same,Temperature at which conversion to Form A was complete,[3]; VT-XRPD,150 °C
same,Temperature of dehydration to anhydrous Form B,[3],about 40 °C
same,Temperature of solid-solid transition to Form A,[3],about 150 °C
same,RH at which Form B starts to convert to hydrated Form C (sorption),Variable humidity XRPD; [5],about 40 % RH
same,RH at which Form C starts to dehydrate to Form B (desorption),Variable humidity XRPD; [5],about 20 % RH
same,RH at which conversion to Form B was complete (desorption),Variable humidity XRPD; [5],10 % RH
same,RH at which conversion to Form C was complete (sorption),Variable humidity XRPD; [5],80 % RH
same,Solid form at first measurements,"Variable humidity XRPD; 80% RH, freshly prepared Form D",already partially transformed to Form C
"COc1cc(N2CCC(N3CCN(C)CC3)CC2)ccc1Nc1ncc(Cl)c(Nc2ccccc2P(C)(C)=O)n1 [Form E, brigatinib]",Solid form after storage (XRPD),[1]; several weeks at ambient temperature,may revert to Form A
COc1cc(N2CCC(N3CCN(C)CC3)CC2)ccc1Nc1ncc(Cl)c(Nc2ccccc2P(C)(C)=O)n1 [amorphous brigatinib],Form dry (XRPD),"[4]; Chloroform vapors, no solids after 2 weeks",A + Am
same,Form dry (XRPD),"[4]; Dichloromethane vapors, no solids after 2 weeks",Am
same,Form dry (XRPD),[4]; Water vapors,A + B + C
"COc1cc(N2CCC(N3CCN(C)CC3)CC2)ccc1Nc1ncc(Cl)c(Nc2ccccc2P(C)(C)=O)n1 [Form H, brigatinib]",Solid form after storage (XRPD),[1]; ambient conditions for 1-3 weeks,had partially transformed to Form A
"COc1cc(N2CCC(N3CCN(C)CC3)CC2)ccc1Nc1ncc(Cl)c(Nc2ccccc2P(C)(C)=O)n1 [Form G, brigatinib]",Solid form after storage (XRPD),[1]; ambient conditions for 5 weeks,had transformed to Form A
"COc1cc(N2CCC(N3CCN(C)CC3)CC2)ccc1Nc1ncc(Cl)c(Nc2ccccc2P(C)(C)=O)n1 [Form F, brigatinib]",Solid form after storage (XRPD),[1]; heating or storage at ambient conditions for 8 weeks,desolvated to give Form A
"COc1cc(N2CCC(N3CCN(C)CC3)CC2)ccc1Nc1ncc(Cl)c(Nc2ccccc2P(C)(C)=O)n1 [Forms A+J, brigatinib]",Solid form after storage (XRPD),"[1]; mixture of Forms A+J, ambient conditions for 3 weeks",still a mixture of Forms A+J
